Structures can show the parent of a compound that is named as a salt.
Legend:
human 5-HT2A receptor = human 5-HT2A receptor (Homo sapiens (Human), UniProt P28223); test: [125I]DOI radioligand binding assay; settings: 0.5 nM [125I]DOI, membranes of COS7 cells transfected with human 5-HT2A receptor
Protocol: For the IP accumulation assay (Example 10), HEK293 cells were transfected while for the DOI binding assay (Example 11) COS7 cells were transfected. Several protocols well known in the art can be used to transfect cells. The following protocol is representative of the transfection procedures used herein for COS7 or 293 cells.
On day one, COS-7 cells were plated onto 24 well plates, usually 1×10^5 cells/well or 2×10^5 cells/well, respectively. On day two, the cells were transfected by first mixing 0.25 μg cDNA in 50 μL serum-free DMEM/well and then 2 μl lipofectamine in 50 μL serum-free DMEM/well. The solutions (“transfection media”) were gently mixed and incubated for 15-30 minutes at room temperature. The cells were washed with 0.5 mL PBS and then 400 μL of serum free media was mixed with the transfection media and added to the cells. The cells were then incubated for 3-4 hours at 37° C./5% CO2. Then the transfection media was removed and replaced with 1 mL/well of regular growth media.
Compounds of the invention were tested for their ability to bind to a 5-HT2A receptor clone membrane preparation using a radioligand binding assay. Briefly, COS cells were transiently transfected with a pCMV expression vector containing a human 5-HT2A receptor (for the sequence of the receptor see U.S. Pat. No. 6,541,209, SEQ ID NO:24) as described in Example 9.
COS7 cells transfected with recombinant human 5-HT2A receptors were cultured for 48 hr post transfection, collected, washed with ice-cold phosphate buffered saline, pH7.4 (PBS), and then centrifuged at 48,000×g for 20 min at 4° C. The cell pellet was then resuspended in wash buffer containing 20 mM HEPES pH 7.4 and 0.1 mM EDTA, homogenized on ice using a Brinkman polytron, and recentrifuged at 48,000×g for 20 min. at 4° C. The resultant pellet was then resuspended in 20 mM HEPES, pH 7.4, homogenized on ice, and centrifuged (48,000×g for 20 min at 4° C.). Crude membrane pellets were stored at −80° C. until used for radioligand binding assays.
Radioligand binding assays for human 5-HT2A receptor was conducted using the 5-HT2 agonist [^125]DOI as radioligand. To define nonspecific binding, 10 μM DOI was used for all assays. For competitive binding studies, 0.5 nM [^125]DOI was used and compounds were assayed over a range of 0.01 nM to 10 μM. Assays were conducted in a total volume of 200 μl in 96-well Perkin Elmer GF/C filter plates in assay buffer (50 mM Tris-HCl, pH 7.4, 0.5 mM EDTA, 5 mM MgCl2, and 10 μM pargyline). Assay incubations were performed for 60 min at room temperature and were terminated by rapid filtration under vacuum pressure of the reaction mixture over Whatman GF/C glass fiber filters presoaked in 0.5% PEI using a Brandell cell harvestor. Filters were then washing several times with ice-cold wash buffer (50 mM Tris-HCl, pH 7.4). Plates were then dried at room temperature and counted in a Wallac microBeta scintillation counter.

JC virus = settings: cited from earlier work

human 5-HT2A receptor, sequence (P28223 whole entry): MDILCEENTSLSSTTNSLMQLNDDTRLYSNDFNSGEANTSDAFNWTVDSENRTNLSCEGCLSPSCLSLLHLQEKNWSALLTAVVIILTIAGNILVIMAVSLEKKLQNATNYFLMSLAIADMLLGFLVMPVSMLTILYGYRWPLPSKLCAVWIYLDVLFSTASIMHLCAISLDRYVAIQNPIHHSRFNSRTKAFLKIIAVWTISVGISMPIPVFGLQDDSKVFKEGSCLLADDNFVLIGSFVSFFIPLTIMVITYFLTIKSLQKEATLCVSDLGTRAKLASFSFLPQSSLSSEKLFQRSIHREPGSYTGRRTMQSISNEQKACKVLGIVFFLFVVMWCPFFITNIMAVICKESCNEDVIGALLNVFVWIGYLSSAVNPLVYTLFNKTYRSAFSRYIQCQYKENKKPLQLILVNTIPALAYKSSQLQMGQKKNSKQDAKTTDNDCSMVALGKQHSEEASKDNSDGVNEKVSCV

Structure (SMILES) | IC50 (human 5-HT2A receptor) [nM] | JC virus infection of human glial cells (JC virus)
Cn1ncc(Cl)c1-c1cc(NC(=O)c2ccc(F)c(C(F)(F)F)c2)ccc1OCCN [Compound 197, N-[4-(2-amino-ethoxy)-3-(4-chloro-2-methyl-2H-pyrazol-3-yl)-phenyl]-4-fluoro-3-trifluoromethyl-benzamide trifluoroacetate] | 1 | –
O=C(c1ccc(F)cc1)C1CCN(CCn2c(=O)[nH]c3ccccc3c2=O)CC1 [ketanserin] | – | inhibited
Cc1nc2sccn2c(=O)c1CCN1CCC(=C(c2ccc(F)cc2)c2ccc(F)cc2)CC1 [ritanserin] | – | inhibited

Continued, in another order:

IC50 (human 5-HT2A receptor) [nM] | Structure (SMILES) | JC virus infection of human glial cells (JC virus)
0.025 | Cn1nccc1-c1cc(NC(=O)C(=O)c2ccc(F)cc2)ccc1OCCN [Compound 32, N-[4-(2-Amino-ethoxy)-3-(2-methyl-2H-pyrazol-3-yl)-phenyl]-2-(4-fluoro-phenyl)-2-oxo-acetamide] | –
1.2 | Cn1ncc(Cl)c1-c1cc(NC(=O)c2cc(Br)cs2)ccc1OCCN [Compound 77, 4-bromo-thiophene-2-carboxylic acid [4-(2-amino-ethoxy)-3-(4-chloro-2-methyl-2H-pyrazol-3-yl)-phenyl]-amide trifluoroacetate] | –
91 | Cn1nccc1-c1cc(NC(=O)c2ccno2)ccc1OCCN [Compound 106, Isoxazole-5-carboxylic acid [4-(2-amino-ethoxy)-3-(2-methyl-2H-pyrazol-3-yl)-phenyl]-amide] | –
0.26 | Cn1ncc(Cl)c1-c1cc(NC(=O)C2CCC(C(F)(F)F)CC2)ccc1OCCN (stereo not shown) [Compound 303, 4-trifluoromethyl-cyclohexanecarboxylic acid [4-(2-amino-ethoxy)-3-(4-chloro-2-methyl-2H-pyrazol-3-yl)-phenyl]-amide trifluoroacetate] | –

— US8664258B2, “Primary amines and derivatives thereof as modulators of the 5-HT2A serotonin receptor useful for the treatment of disorders related thereto” (Arena Pharmaceuticals, Inc., priority 2006, dated 2014)
